Source: patent publication US20260159512A1, “BCAT2 INHIBITORS” (AGIOS PHARMACEUTICALS, INC., priority 2021, published 2026)

What was measured:
Conditions in all cases: average where tested multiple times
BCAT2 [1] = target: T1, BCAT2 (Homo sapiens, UniProt O15382); assay: BCAT2 in vitro enzyme inhibition assay (resazurin/diaphorase-coupled fluorescence); type: biochemical
T1 sequence (O15382 28-392): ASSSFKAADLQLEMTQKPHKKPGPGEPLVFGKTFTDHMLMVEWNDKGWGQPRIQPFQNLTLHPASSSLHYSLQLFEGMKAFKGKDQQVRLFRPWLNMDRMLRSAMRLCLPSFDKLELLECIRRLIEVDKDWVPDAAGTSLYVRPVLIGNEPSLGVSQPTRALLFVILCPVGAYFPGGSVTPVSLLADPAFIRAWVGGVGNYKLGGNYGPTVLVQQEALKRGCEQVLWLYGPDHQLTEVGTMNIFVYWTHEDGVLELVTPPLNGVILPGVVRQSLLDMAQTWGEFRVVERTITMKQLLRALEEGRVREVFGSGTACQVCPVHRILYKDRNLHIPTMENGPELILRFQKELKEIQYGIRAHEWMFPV
Summary of the method: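 Coupled fluorescence readout: glutamate formed from L-leucine/α-ketoglutarate transamination drives GDH/NAD/diaphorase reduction of resazurin (Ex 540/Em 590). Human BCAT2 was first exposed 1 h at room temperature to compound, top final 100 μM in 3-fold, 10-point series; substrate reaction ran 1 h before SDS quench, in technical duplicate with DMSO max and enzyme-free min controls.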

hBCAT1 = target: T2, hBCAT1 (Homo sapiens, UniProt P54687); assay: BCAT1 in vitro enzyme inhibition assay (resazurin/diaphorase-coupled fluorescence); type: biochemical
T2 sequence (P54687 1-386): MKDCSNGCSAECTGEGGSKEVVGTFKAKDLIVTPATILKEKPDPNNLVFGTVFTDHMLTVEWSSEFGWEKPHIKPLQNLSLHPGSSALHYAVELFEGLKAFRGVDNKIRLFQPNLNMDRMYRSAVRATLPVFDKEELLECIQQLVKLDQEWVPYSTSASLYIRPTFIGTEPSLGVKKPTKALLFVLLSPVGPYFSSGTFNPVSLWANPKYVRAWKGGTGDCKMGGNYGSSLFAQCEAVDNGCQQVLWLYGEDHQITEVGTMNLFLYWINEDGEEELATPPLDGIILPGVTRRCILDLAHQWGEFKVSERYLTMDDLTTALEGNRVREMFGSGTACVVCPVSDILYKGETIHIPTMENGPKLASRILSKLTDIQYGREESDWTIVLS
Summary of the method: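 Human BCAT1 activity read by resazurin/diaphorase-coupled fluorescence. Compounds added from 50× DMSO stocks at 1:50, giving 10-point 3-fold titrations from 100 μM top final concentration. Run in technical duplicate; repeat tests averaged.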

BCAT2 [2] = target: T1, BCAT2; assay: BCAT2 in vitro cell inhibition using engineered A549 cells (KMV cell assay, 13C6-KMV by LC-MS/MS); type: cell-based; design: The result was an engineered A549 cell line that expressed endogenous BCAT2; endogenous in cells; host or cells: A549 cells with MUT and BCAT1 knocked out by CRISPR/CAS9

IC50 (BCAT2 [1]): ≤ 100 nM | IC50 (hBCAT1): < 500 nM | IC50 (BCAT2 [2]): ≤ 100 nM
SMILES: COC(=O)N1C[C@H](NC(=O)c2ccc(Cl)s2)C[C@H](n2c(-c3ccccc3F)nc3cnc(-c4nc[nH]n4)cc32)C1 [Example 462, methyl (3R,5S)-3-(5-chlorothiophene-2-carboxamido)-5-(2-(2-fluorophenyl)-6-(1H-1,2,4-triazol-3-yl)-1H-imidazo[4,5-c]pyridin-1-yl)piperidine-1-carboxylate]
